# Reference: US11191798B2, “Extracts of Andrographis paniculata, methods for preparation and use thereof” (NUTRITION SCIENCE PARTNERS LIMITED, priority 2016, dated 2021)
# Tests used:
# FGF1 [1] = experiment: FGF1 mRNA expression in human T84 cell line (Assay 6); format: cell-based; conditions: about 24 hours
# Protocol: Enhancement of FGF1 expression of Example 7 and the four ingredients AND, NAND, DAND, and DDAND was investigated in human T84 cell line.
# The adherent epithelial cell line T84 was used in the assay. For sustaining cell culture, T84 cells were incubated with DMEM/F-12 (1:1) medium containing 5% FBS at 37° C. with 5% CO2. Sub-culture was performed when cells reached 90% confluence.
# (§1) For the assay, the cells were trypsinized and suspended in culture medium. The cell density was determined and adjusted to 1×10^6 cells/mL. Then, the cells were seeded into a 96-well plate and incubated at 37° C. with 5% CO2 overnight.
# The two Andrographis paniculata extracts, Standard 1 and Example 7, and AND, NAND, DAND, DDAND, and the mixture of them (named as the mixture of 4 markers, wherein the amounts of AND, NAND, DAND, and DDAND were 69%, 11%, 5%, and 15%, respectively, by weight relative to the weight of the mixture) were serially diluted in DMSO and further diluted in medium. Diluted solution was added into wells. The final concentrations for Standard 1 were: 300 and 100 μg/mL. The final concentration for Example 7 was: 100 μg/mL. The final concentration for NAND, DAND and DDAND was 10 μg/mL and AND was 40 μg/mL. The final concentrations for mixture of 4 markers were: 100 and 30 μg/mL. The plate was incubated at 37° C. with 5% CO2 for about 24 hours. The supernatants were removed and 150 μL RLT buffer was added into each well. The plate was stored at −80° C. until RNA extraction.
# Total RNA was extracted using RNeasy 96 kit (QIAGEN) and cDNA was synthesized from RNA template using High Capacity cDNA RT kit (Applied Biosystems). Quantitative real-time PCR detection of gene expression was using SYBR Premix Ex Taq TM II (TakaRa). Expression of genes analyzed by q-PCR was normalized to GAPDH using the fold change (2^−ΔΔCT) method. The formula used in the calculation is shown as follows: Fold=2^−ΔΔCT=2^−[(CT^test sample^−CT^test sample_GAPDH^)−(CT^minimum^−CT^minimum_GAPDH^)] where CTtest sample is the CT value of target gene in cells treated with the test samples; CTtest sample-GAPDH is the CT value of GAPDH gene in cells treated with the test samples; CTminimum is the CT value of target gene in cells treated without test samples, and CTminimum-GAPDH is the CT value of GAPDH gene in cells treated without test samples.
# EGF [2] = experiment: EGF mRNA expression in epithelial cell line T84; format: cell-based, human; conditions: about 24 hours
# Protocol: (§2) Enhancement of EGF and FGF expression were investigated in a human HT-29 and T84 cell lines.
# (§3) Two adherent epithelial cell lines, HT29 and T84, were used in the assay. For sustaining cell culture, HT29 cells were incubated in cell culture dish with McCoy's 5a Medium containing 10% FBS, and T84 cells were incubated with DMEM/F-12 (1:1) medium containing 5% FBS. All cells were incubated at 37° C. with 5% CO2. Sub-culture was performed when cells reached 90% confluence.
# as §1
# (§4) The two Andrographis paniculata extracts, Standard 1 and Example 1, were serially diluted in DMSO and further diluted in medium. Diluted solution was added into wells. The final concentrations for Standard 1 were: 300, 100, 30 and 10 μg/mL. The final concentrations for Example 1 were: 100, 30, 10 and 1 μg/mL. […]
# (§5) Total RNA was extracted using RNeasy 96 kit (QIAGEN) and cDNA was synthesized from RNA template using High Capacity cDNA RT kit (Applied Biosystems). Quantitative real-time PCR detection of gene expression was using SYBR Premix Ex Taq TM II (TakaRa). Expression of genes analyzed by q-PCR was normalized to GAPDH using the fold change (2^−ΔΔCT) method. […]
# FGF1 [3] = experiment: FGF1 mRNA expression in epithelial cell T84 (Assay 5); format: cell-based, human; conditions: about 24 hours
# Protocol: as §2, §3, §1, §4, §5
# EGF [4] = experiment: EGF mRNA expression in epithelial cell line HT29; format: cell-based, human; conditions: about 24 hours
# Protocol: as §2, §3, §1, §4, §5
# FGF2 = FGF2 mRNA expression in epithelial cell T84 (Assay 5); format: cell-based, human; conditions: about 24 hours
# Protocol: as §2, §3, §1, §4, §5
# DNBS-induced rat colitis = DNBS-induced rat colitis prophylactic model; format: in vivo, Wistar rats
# Protocol: Assay 7: The In Vivo Efficacy of Andrographis Extract in a DNBS-Induced Rat Colitis Prophylactic Model 1. Materials 1.1. Test Compounds and Formulation Methods • Test articles: Two Andrographis paniculata extracts, Example 10 used in Experiment 1 and Example 11 used in Experiment 2. • Control drugs: Standard 1; and Sulfasalazine (SASP), Sigma-Aldrich, Cat S0883.
# Oral suspension of the test articles and Standard 1 were prepared as follows: the test articles and Standard 1 were respectively weighed and added into a 50 mL centrifuge tube. 0.5% sodium carboxymethylcellulose (0.5% CMC-Na) was added. Sonicate for 15 min to give suspensions with desired concentration. The fresh-made formulation was stored away from light, and homogenized thoroughly before use. The administration volume was 10 ml/kg.
# Oral suspension of SASP was prepared as follows: SASP was weighed and added into a 50 mL centrifuge tube. 0.5% CMC-Na was added. Sonicate for 15 min to give 30 mg/mL suspension. The fresh-made formulation was stored away from light, and homogenized thoroughly before use. The administration volume was 10 ml/kg.
# Male Wistar rats, 110-130 g, were purchased from Shanghai SLAC Laboratory Animal Co. Ltd.
# Wistar rats were randomized assigned. The fasting rats were anesthetized with 25 mg/kg Zoletil and 0.5 mg/kg xylazine. And colitis was induced by intracolonic administration of 10 mg or 12 mg DNBS dissolved in 0.25 mL of 30% ethanol (v/v). The animals in naive control group were instilled with 30% ethanol only.
# • Body weight: Body weights of animals were checked daily on and after grouping. • Diarrhea score: Stool consistency of the animals was monitored and scored daily from the 3rd day after the model induction. Evaluation criteria: 0=formed, 1=moist/sticky, 2=loose, 3=liquid. • Colon weight and length measurement: Rats were sacrificed 4 h post the last dosing on the 6th day. The abdomen was opened by a midline incision. Adhesion degree of colon and other organs was observed. The colon (from cecum end to the anus) was emptied of its content, rinsed with saline. The weight and length of the colon were measured, and then the colon ratio (colon weight/colon length) was calculated. • Histopathology analysis: Proximal colon with obvious ulcer was made into Swiss Rolls, fixed in 10% neutral formalin solution, dehydrated with xylene, embedded in paraffin, sectioned, and stained with hematoxylin and eosin (H&E). […] The severity of lesion was graded based on a semi-quantitative scale using the sum of scores of the following 10 evaluation indicators (see table 7).
# All of the data were presented as mean±SD.
# Body weight data were analyzed with repeated-measures ANOVA analysis by GraphPad Prism 6.0 software. Fisher's Least Significant Difference (LSD) test was used to perform significance analysis. p value was calculated. *p<0.05 refers to significant difference between vehicle control group and each of the treated groups. **p<0.01 refers to extremely significant difference between vehicle control group and each of the treated groups.
# The colon ratio inhibition of each animal was calculated by the following formula, wherein CW refers to colon weight, CL refers to colon length:
# The statistical analysis of the data of colon length and colon ratio was performed by Graphpad Prism 6.0 software. Unpaired t test or Mann-Whitney test were applied to analyze the significance analysis between test article treated groups and vehicle treated group, based on the normality of the data.
# [5] = Experiment 1, 300 mg/kg PO, mean±SD
smiles,measurement,setting,value
"C=C1CCC2C(C)(CO)C(O)CCC2(C)C1/C=C/C1=CCOC1=O (stereo not shown) [DDAND, 14-Deoxy-11,12-dehydroandrographolide]",FGF1 up-regulation effect,"FGF1 [1]; T84, 10 μg/mL",did not show similar FGF1 up-regulation effect
"C=C1CC[C@@H]2[C@](C)(CO)[C@H](O)CC[C@@]2(C)[C@@H]1CCC1=CCOC1=O [DAND, 14-deoxyandrographolide]",FGF1 up-regulation effect,"FGF1 [1]; T84, 10 μg/mL",did not show similar FGF1 up-regulation effect
"C=C1CC[C@@H]2[C@](C)(CO)[C@H](O)CC[C@@]2(C)[C@@H]1C/C=C1/C(=O)OC[C@H]1O [AND, Andrographolide]",FGF1 up-regulation effect,"FGF1 [1]; T84, 40 μg/mL",did not show similar FGF1 up-regulation effect
same,mRNA expression of EGF in T84 cells,EGF [2],increased
same,mRNA expression of FGF1 in T84 cells,FGF1 [3],had no similar effect
same,mRNA expression of EGF in HT29 cells,EGF [4],increased
same,mRNA expression of FGF2 in T84 cells,FGF2,had no similar effect
"O=C(O)c1cc(/N=N/c2ccc(S(=O)(=O)Nc3ccccn3)cc2)ccc1O [SASP, Sulfasalazine]",colon histopathology findings,"DNBS-induced rat colitis; 300 mg/kg/day, 8 samples",five samples showed severe mucosal erosion and inflammatory cell infiltration
same,"Colon ratio inhibition, %","DNBS-induced rat colitis; Experiment 1, 300 mg/kg PO",44.5%
same,Colon ration CW/CL (%),DNBS-induced rat colitis; [5],0.0846 ± 0.0089 %
same,"Crypt abscesses, histopathological score",DNBS-induced rat colitis; [5],0.1 ± 0.4
same,"Degree of cellular infiltrate, histopathological score",DNBS-induced rat colitis; [5],2.1 ± 0.8
same,"Degree of erosion/ulcer, histopathological score",DNBS-induced rat colitis; [5],1.6 ± 1.4
same,"Degree of mucosa edema, histopathological score",DNBS-induced rat colitis; [5],1.6 ± 0.9
same,"Epithelium hyperplasia, histopathological score",DNBS-induced rat colitis; [5],0.8 ± 0.5
same,"Goblet cell depletion, histopathological score",DNBS-induced rat colitis; [5],0.9 ± 0.4
same,"Muscle thickening, histopathological score",DNBS-induced rat colitis; [5],1.4 ± 0.9
same,"Severe destruction for erosion (%), histopathological score",DNBS-induced rat colitis; [5],0.8 ± 0.7
same,"Severely affected in infiltration (%), histopathological score",DNBS-induced rat colitis; [5],1.6 ± 0.7
same,The sum of score (colon histopathology),DNBS-induced rat colitis; [5],12.5 ± 6.3
same,"Total area affected (%), histopathological score",DNBS-induced rat colitis; [5],1.6 ± 0.7
"C=C1CC[C@@H]2[C@](C)(CO[C@@H]3O[C@H](CO)[C@@H](O)[C@H](O)[C@H]3O)CCC[C@@]2(C)[C@@H]1CCC1=CCOC1=O [NAND, Neoandrographolide]",FGF1 up-regulation effect,"FGF1 [1]; T84, 10 μg/mL",did not show similar FGF1 up-regulation effect
